Experimental data taken from publication PMC12427341, “Phytochemical-Mediated Modulation of Doramectin Pharmacology in Sheep: Exploring the Cinnamaldehyde–Pink Grapefruit Combination” (Animals : an Open Access Journal from MDPI, 2025).
Several values for one entry are separate records, joined by “and”; a condition that tells them apart may be missing. Equal values may be shown once. Marks after values point to notes of the source that are not given here. Values belong to the compound of their own block, whether it stands above or below them.

Tests used:
[1] = rats; cited from earlier work
Syphacia muris = system: Syphacia muris; set-up: method as in doi:10.2478/acve-2018-0036; conditions: rats infected with Syphacia muris; cited from earlier work
Ascaris suum = system: Ascaris suum; set-up: method as in PMID 26420588; conditions: pigs; cited from earlier work
Haemonchus spp. [2] = assay: Efficacy by nematode genus (coprocultures), trial 1; assay type: in vivo, Haemonchus contortus; conditions: day 14, oral, lambs n = 9
Experimental: (§1) The coadministration of DRM and CNM–PGF, both by an oral emulsion, was evaluated in lambs. The trial involved 35 Corriedale and Texel crossbred lambs (mean body weight, 26 kg) naturally infected with resistant gastrointestinal nematodes and was conducted in a sheep experimental unit (Estación Experimental INTA, Balcarce, Argentina). There, a parasite control program based on the intensive use of antiparasitic drugs has been implemented for many years, leading to anthelmintic resistance to MLs and benzimidazoles. Animals were selected based on worm egg per gram counts (EPG), with an average EPG count of 2102 ± 1662. Animals were kept in a paddock and fed hay ad libitum, together with commercial concentrate feed. All animals had free access to water. Lambs were assigned to four experimental groups sorted by EPG count. Group A received an emulsion containing DRM (single dose of 0.2 mg/kg) (n = 9). Group B received CNM–PGF orally as an emulsion (two doses of 100 mg/kg every 24 h) (n = 9). Lambs of Group C were treated with an emulsion containing both DRM and CNM–PGF on the first day, and the second day, they received an emulsion of CNM–PGF only (n = 9). Group D included untreated lambs (n = 8). […] To evaluate the effect of the treatment, individual fecal samples from all the lambs were collected on days −1, 7, and 14 of treatment, and the fecal egg count reduction (FECR) was calculated. […]

Trichostrongylus spp. [3] = assay: as above; assay type: in vivo; conditions: day 14, oral, lambs n = 9
Experimental: as §1, with “8). The selected phytochemical dose was based on previous in vivo studies with other monoterpenes, such as thymol and carvone, which were administered to lambs at doses ranging from 100 to 150 mg/kg, without adverse effects. CNM–PGF was formulated as an emulsion composed of Tween-80/sesame oil (3:1) 20% at a final concentration of 15% CNM and 15% PGF. Briefly, the CNM–PGF emulsion was prepared using the high-energy ultrasonic method. CNM and PGF were mixed with sesame oil to form the oil phase. The oil phase was added dropwise to the aqueous phase containing Tween-80 and distillated water while stirring, and the emulsion formed was then subjected to ultrasonic emulsification for 15 min.” for “8).”

Cooperia spp. = assay: as above; assay type: in vivo; conditions: day 14, oral, lambs n = 9
Experimental: as §1, with “8). The selected phytochemical dose was based on previous in vivo studies with other monoterpenes, such as thymol and carvone, which were administered to lambs at doses ranging from 100 to 150 mg/kg, without adverse effects. CNM–PGF was formulated as an emulsion composed of Tween-80/sesame oil (3:1) 20% at a final concentration of 15% CNM and 15% PGF. Briefly, the CNM–PGF emulsion was prepared using the high-energy ultrasonic method. CNM and PGF were mixed with sesame oil to form the oil phase. The oil phase was added dropwise to the aqueous phase containing Tween-80 and distillated water while stirring, and the emulsion formed was then subjected to ultrasonic emulsification for 15 min.” for “8).”

Teladorsagia spp. [4] = assay: as above; assay type: in vivo; conditions: day 14, oral, lambs n = 9
Experimental: as §1, with “8). The selected phytochemical dose was based on previous in vivo studies with other monoterpenes, such as thymol and carvone, which were administered to lambs at doses ranging from 100 to 150 mg/kg, without adverse effects. CNM–PGF was formulated as an emulsion composed of Tween-80/sesame oil (3:1) 20% at a final concentration of 15% CNM and 15% PGF. Briefly, the CNM–PGF emulsion was prepared using the high-energy ultrasonic method. CNM and PGF were mixed with sesame oil to form the oil phase. The oil phase was added dropwise to the aqueous phase containing Tween-80 and distillated water while stirring, and the emulsion formed was then subjected to ultrasonic emulsification for 15 min.” for “8).”

Haemonchus spp. [5] = assay: Efficacy by nematode genus, trial 2; assay type: in vivo, Haemonchus contortus; conditions: day 14, oral, lambs n = 7
Source text: (§2) Lambs were assigned into three experimental groups. […] Group D served as the untreated control (n = 6).

[6] = system: resistant gastrointestinal nematodes; assay: Fecal egg count reduction test (FECRT), trial 1: DRM, CNM–PGF and their combination as oral emulsions; assay type: in vivo, lambs
Experimental: The coadministration of DRM and CNM–PGF, both by an oral emulsion, was evaluated in lambs. The trial involved 35 Corriedale and Texel crossbred lambs (mean body weight, 26 kg) naturally infected with resistant gastrointestinal nematodes and was conducted in a sheep experimental unit (Estación Experimental INTA, Balcarce, Argentina). […] Animals were kept in a paddock and fed hay ad libitum, together with commercial concentrate feed. All animals had free access to water. Lambs were assigned to four experimental groups sorted by EPG count. Group A received an emulsion containing DRM (single dose of 0.2 mg/kg) (n = 9). Group B received CNM–PGF orally as an emulsion (two doses of 100 mg/kg every 24 h) (n = 9). Lambs of Group C were treated with an emulsion containing both DRM and CNM–PGF on the first day, and the second day, they received an emulsion of CNM–PGF only (n = 9). Group D included untreated lambs (n = 8). […] CNM–PGF was formulated as an emulsion composed of Tween-80/sesame oil (3:1) 20% at a final concentration of 15% CNM and 15% PGF. Briefly, the CNM–PGF emulsion was prepared using the high-energy ultrasonic method. CNM and PGF were mixed with sesame oil to form the oil phase. The oil phase was added dropwise to the aqueous phase containing Tween-80 and distillated water while stirring, and the emulsion formed was then subjected to ultrasonic emulsification for 15 min. The same steps were performed for the DRM + CNM–PGF emulsion, the synthetic compound was added to the oil phase, and their final concentration was 0.03%. […] To evaluate the effect of the treatment, individual fecal samples from all the lambs were collected on days −1, 7, and 14 of treatment, and the fecal egg count reduction (FECR) was calculated. The coprocultures were prepared with 10 g of feces from a pool of each experimental group obtained on days −1 and 14. The nematode genera and species were identified through the third-stage larvae recovered from the coprocultures.
(§3) Data are expressed as mean ± standard deviation (SD). Rho123 transport across the ileum is presented as ng of Rho123 in the receptor side of the chamber. The plasma concentration versus time curves obtained after treatment of each animal were fitted with the PK Solutions 2.0 software (summit Research Services, Ashland, OH, USA) software. Pharmacokinetic parameters were determined using a noncompartmental model method. The evaluation of the FECR was calculated according to the following formula [33], with modifications: FECR %=100 × (1−T2/T1) where T1 and T2 are the arithmetic mean EPG counts in the treated group on days 0 and 14, respectively. The 90% confidence intervals were calculated following the method of reference.
The statistical analysis was performed using Prism 8.0 (GraphPad Software, San Diego, CA, USA). ANOVA or Kruskal–Wallis tests were used for the statistical comparison. Tukey or Dunn tests were used for post hoc multiple comparisons. The egg counts obtained for each treatment on Day 14 were compared with the corresponding baseline counts on Day 0 using the Wilcoxon matched-pairs signed rank test. Differences were considered statistically significant at p < 0.05.

P-glycoprotein [7] = system: P-glycoprotein
Experimental: (§6) A series of ex vivo experiments were performed to evaluate the interaction of DRM, CNM–PGF, or LPM with ABC transporters. […] For this assay, sheep ileum samples were obtained from a local slaughterhouse (Ayacucho, Argentina). […] The incubation process was started immediately after obtaining the tissue. During the preparation and assembly process, intestinal tissue was always maintained between 0–4 °C. The tissue was then mounted vertically in a diffusion chamber with an internal surface area of 0.8 cm^2. […] Both the mucosal (M) and serosal (S) sides were filled with 7 and 5 mL of prewarmed and oxygenated Krebs buffer, respectively. […] During preparation, chambers were preincubated to slough off any dead cells, and during this period, the tissue were exposed in the donor side to the presence or absence of 5 µM of DRM; 1.5 mM of CNM–PGF; or 50 µM of LPM, a well-established P-gp modulator, which was used as a positive control [25, 26]. After a 20 min equilibration period, Krebs buffer was completely replaced with fresh medium fortified with 0.5 µM of Rho123 as a substrate to the M or S side of the chambers for measuring the absorption and secretion processes, respectively. Thus, Rho123 was incubated alone (control assays) or in the presence of DRM, CNM–PGF, or LPM. Tissues were incubated for 4 h, and each hour, aliquots of 1 mL were collected from the receptor side and replaced with fresh Krebs buffer.
(§7) Samples from the receptor side (1 mL) were mixed with 2 mL of distillated water to reach a final volume of 3 mL.
(§8) Values of unidirectional transepithelial effective permeability (Peff) (cm.s^−1) were calculated for each chamber according to the following equation: Peff=dC/dT1/A.C0
(§9) The appearance rate on the receiving compartment is dC/dT, calculated from the slope of the concentration versus time curve over a time period of 4 h (Rho123); A is the exposed area (cm^2) of the tissue in the Ussing chamber (0.8 cm^2), and C0 is the initial drug concentration (ng/mL) in the donor compartment. The efflux ratio (ER) was calculated as follows: ER=mean Peff S−M/mean Peff M−S
(§10) The intestinal absorption is represented by permeability in the M–S direction. The S–M side can also be used to measure permeability, in this case characterizes intestinal secretion. A higher Peff S–M compared to the Peff M–S is indicative of carrier-mediated transport.

P-glycoprotein [8] = assay: Ex vivo intestinal transport of rhodamine 123 across sheep ileum (diffusion chamber model); conditions: 4 h; for Peff M–S of Rho123 in the presence of the modulator: 0.5 µM Rho123, 5 µM DRM, 1.5 mM CNM–PGF or 50 µM LPM
Experimental: as §6, §7, §8, §9, §10

Trichostrongylus spp. [9] = assay: Efficacy by nematode genus, trial 2; assay type: in vivo; conditions: day 14, oral, lambs n = 7
Source text: as §2

Teladorsagia spp. [10] = assay: Efficacy by nematode genus, trial 2; assay type: in vivo; conditions: day 14, oral, lambs n = 7
Source text: as §2

[11] = system: resistant gastrointestinal nematodes; assay: Fecal egg count reduction test (FECRT), trial 2: DRM alone or with CNM–PGF or LPM; assay type: in vivo, lambs
Experimental: (§4) An in vivo assay was performed to evaluate the pharmacokinetics and the efficacy of DRM orally administered alone or in combination with CNM–PGF and LPM against resistant gastrointestinal nematodes in lambs. For the trial, 27 naturally infected Corriedale and Texel crossbreed lambs (average weight, 33 kg) were used. On day −1, all lambs were checked for EPG and tagged, and the individual body weights were recorded. As in the previous assay (Trial 2.1), the selection of the animals was based on EPG. […] Lambs were housed in a paddock with access to hay, commercial concentrates, and water ad libitum. Lambs were assigned into three experimental groups. Group A received DRM (0.2 mg/kg) as an oral emulsion (n = 7). Lambs in groups B and C received an emulsion containing DRM (a single dose of 0.2 mg/kg) and either LPM (n = 7) (three oral doses of 0.3 mg/kg, every 24 h) or CNM–PGF (n = 7) (three oral doses containing 72 and 64 mg/kg of CNM and PGF, respectively, every 24 h). Group D served as the untreated control (n = 6). As appropriate, the final concentrations of the active ingredients within the formulations were DRM 5%, CNM 18%, PGF 16%, LPM 30%. The compounds were diluted in Tween-80 11%, sesame oil 1–30%, and distilled water. The formulations were prepared using a similar method to that used in the previously described trial (Trial 2.1).
(§5) For the plasma disposition of DRM, jugular blood samples (2 mL) were collected into heparinized vacutainer tubes before treatment and at 3, 6, 9, 24, 30, 48, and 54 h and 3, 4, 7, 10, and 14 days post treatment. Blood samples were centrifuged at 2000× g for 15 min; the recovered plasma was kept in labeled vials and stored at −20 °C until the analysis of DRM by high performance liquid chromatography (HPLC). The effect of each treatment was indirectly estimated by collecting fecal samples on days −1 and 14 of administration to evaluate the FECR.
as §3
The statistical analysis was performed using Prism 8.0 (GraphPad Software, San Diego, CA, USA). ANOVA or Kruskal–Wallis tests were used for the statistical comparison. […]

[12] = Plasma pharmacokinetics of DRM after oral administration alone or with CNM–PGF or LPM; conditions: DRM 0.2 mg/kg oral emulsion; sheep n = 7; mean ± SD
Experimental: as §4, §5, §3

[13] = set-up: method as in PMID 11106995; conditions: sheep; cited from earlier work
[14] = system: gastrointestinal nematodes; conditions: cited from earlier work; for Efficacy of single phytochemicals: sheep, low to moderate efficacy
C. elegans = system: C. elegans; set-up: method as in doi:10.1155/2020/1740938; conditions: in vitro exposure; cited from earlier work
P-glycoprotein [15] = assay: in vitro; conditions: Corriedale and Texel crossbreed, sheep
Experimental: as §6, §7, §8, §9, §10

[16] = day 14, lower-upper confidence limit

SMILES: O=C/C=C/c1ccccc1 [CNM, cinnamaldehyde]
Oral LD50 [1]: approximately 2220 mg/kg
In vivo efficacy (Syphacia muris): no in vivo efficacy was observed
In vivo anthelmintic effect (Ascaris suum): failed to exert any in vivo anthelmintic effect

SMILES: CO[C@H]1C[C@H](O[C@H]2[C@H](C)O[C@@H](O[C@@H]3/C(C)=C/C[C@@H]4C[C@@H](C[C@]5(C=C[C@H](C)[C@@H](C6CCCCC6)O5)O4)OC(=O)[C@@H]4C=C(C)[C@@H](O)[C@H]5OC/C(=C\C=C\[C@@H]3C)[C@]54O)C[C@@H]2OC)O[C@@H](C)[C@@H]1O [DRM, doramectin]
Efficacy (%) against Haemonchus spp. (Haemonchus spp. [2]): 0%
Efficacy (%) against Trichostrongylus spp. (Trichostrongylus spp. [3]): 100%
Efficacy (%) against Cooperia spp. (Cooperia spp.): 100%
Efficacy (%) against Teladorsagia spp. (Teladorsagia spp. [4]): 100%
Efficacy (%) against Haemonchus spp. (Haemonchus spp. [5]): 0%
Mean egg per gram (EPG) counts (±SD), Day 14 ([6]; 14 days after oral administration, DRM 0.2 mg/kg single dose, CNM–PGF two doses of 100 mg/kg every 24 h, lambs n = 9): 910 ± 2548 EPG and 910 ± 2548 ^abB EPG
Mean egg per gram (EPG) counts (±SD), Day 0 ([6]; baseline before treatment, lambs n = 9, mean ± SD): 2716 ± 2641 ^aA EPG
Prevalence of egg count negativization (percentage of animals with an egg count of zero) ([6]; day 14): 40%
FECR (LCL-UCL), 90% confidence interval [6, 16]: (0–98) %
FECR (%) ([6]; day 14, oral emulsion, lambs n = 9): 66%
Efflux ratio (ER) of Rho123 in the presence of the modulator (P-glycoprotein [7]): 4.66
Peff M–S of Rho123 in the presence of the modulator (P-glycoprotein [8]): 3.83 ± 1.87 ×10⁻⁶ cm/s
Efficacy (%) against Trichostrongylus spp. (Trichostrongylus spp. [9]): 100%
Efficacy (%) against Teladorsagia spp. (Teladorsagia spp. [10]): 82%
Mean egg per gram (EPG) counts (±SD), Day 14 ([11]; 14 days after oral DRM 0.2 mg/kg, LPM three doses of 0.3 mg/kg, CNM–PGF three doses of 72 and 64 mg/kg, every 24 h, lambs n = 7): 694 ± 944 EPG and 694 ± 944 ^aB EPG
Mean egg per gram (EPG) counts (±SD), Day 0 ([11]; baseline before treatment, lambs n = 7, mean ± SD): 1586 ± 984 ^aA EPG
FECR (LCL-UCL), 90% confidence interval [11, 16]: (9–88) %
FECR (%) ([11]; day 14, oral emulsion, lambs n = 7): 56%
AUC0–t of DRM in plasma [12]: 90.84 ± 33.61 ^a ng d/mL
Cmax of DRM in plasma [12]: 25.76 ± 10.01 ^a ng/mL
T max of DRM in plasma [12]: 0.93 ± 0.47 ^a days
T ½ el (elimination half-life) of DRM [12]: 2.19 ± 0.41 ^a days
Absolute oral bioavailability [13]: 25%

SMILES: CN(C)C(=O)C(CCN1CCC(O)(c2ccc(Cl)cc2)CC1)(c1ccccc1)c1ccccc1 [LPM, loperamide]
Peff M–S of Rho123 in the presence of the modulator (P-glycoprotein [8]): 3.84 ± 1.02 ×10⁻⁶ cm/s

SMILES: C=C(C)[C@H]1CC=C(C)CC1 [Limonene, limonene]
FECR ([14]; long-term administration through feed, coadministered with a single dose of ivermectin, adult nematode number unaffected): 82%
Survival rate of C. elegans (C. elegans): 30%

efflux ratio at 4 h, 0.5 µM (P-glycoprotein [15]): 10.3
Rho123 absorption, Peff M–S (P-glycoprotein [8]; 0.5 µM Rho123 alone (control)): 1.39 ± 0.343 ×10⁻⁶ cm/s
Rho123 secretion, Peff S–M (P-glycoprotein [8]; 0.5 µM Rho123 alone (control)): 11.1 ± 3.64 ×10⁻⁶ cm/s
SMILES: COC(=O)c1ccccc1-c1c2ccc(=N)cc-2oc2cc(N)ccc12 [Rho123, rhodamine 123]

SMILES: C=C(C)C1CC=C(C)C(=O)C1 (stereo not shown) [carvone]
Efficacy of single phytochemicals [14]: 0–47%

SMILES: Cc1ccc(C(C)C)c(O)c1 [thymol]
Efficacy of single phytochemicals [14]: 0–47%
